Test results from paper PMC10584170, “Machine learning-based phenotypic imaging to characterise the targetable biology of Plasmodium falciparum male gametocytes for the development of transmission-blocking antimalarials” (PLOS Pathogens, 2023).
Where two headings read alike, the source gives them in different places.

Assays:
HepG2 cells = assay: HepG2 cytotoxicity counter-screen; conditions: cytotoxic activity against HepG2 cells
[1] = system: P. falciparum male gametocytes; assay: P. falciparum Dual Gamete Formation Assay (PfDGFA), male readout (exflagellation); assay type: cell-based, Plasmodium falciparum NF54; conditions: for Selectivity Ratio M: HepG2 Tox50 versus male IC50; for IC50: PfDGFA, 24 h incubation with gametocytes before induction, exflagellation readout, read-out: Male IC50; for HitlevelM: number of replicates with >50% inhibition in the male readout
Outline: (§1)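 Read-outs are automated image counts of exflagellation centres (brightfield, 10 frames over 1 s) and Pfs25-positive female gametes (Cy3 fluorescence).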

[2] = system: P. falciparum female gametocytes; assay: P. falciparum Dual Gamete Formation Assay (PfDGFA), female readout (Pfs25-positive female gametes); assay type: cell-based, Plasmodium falciparum NF54; conditions: for Selectivity ratio F: HepG2 Tox50 versus female IC50; for IC50: PfDGFA, 24 h incubation with gametocytes before induction, female gamete readout, read-out: Female IC50; for HitlevelF: number of replicates with >50% inhibition in the female readout
Outline: as §1

[3] = PfDGFA at 2µM, 24h preincubation with gametocytes, average of replicates
[4] = PfDGFA at 2µM, 24h preincubation with gametocytes, replicate R1
[5] = PfDGFA at 2µM, 24h preincubation with gametocytes, replicate R3
[6] = PfDGFA at 2µM, 24h preincubation with gametocytes, replicate R4
[7] = Plasmodium falciparum, 2µM, 24h preincubation with gametocytes, average of replicates, read-out: Average inhibition male (%)
[8] = Plasmodium falciparum, 2µM, 24h preincubation with gametocytes, replicate R1, read-out: % inhibition male (individual replicates) R1
[9] = Plasmodium falciparum, 2µM, 24h preincubation with gametocytes, replicate R2, read-out: % inhibition male (individual replicates) R2
[10] = Plasmodium falciparum, 2µM, 24h preincubation with gametocytes, replicate R3, read-out: % inhibition male (individual replicates) R3
[11] = Plasmodium falciparum, 2µM, 24h preincubation with gametocytes, replicate R4, read-out: % inhibition male (individual replicates) R4
[12] = Plasmodium falciparum, 2µM, 24h preincubation with gametocytes, average of replicates, read-out: Average inhibition female (%)
[13] = Plasmodium falciparum, 2µM, 24h preincubation with gametocytes, replicate R1, read-out: % inhibition female (individual replicates) R1
[14] = Plasmodium falciparum, 2µM, 24h preincubation with gametocytes, replicate R2, read-out: % inhibition female (individual replicates) R2
[15] = Plasmodium falciparum, 2µM, 24h preincubation with gametocytes, replicate R3, read-out: % inhibition female (individual replicates) R3
[16] = Plasmodium falciparum, 2µM, 24h preincubation with gametocytes, replicate R4, read-out: % inhibition female (individual replicates) R4
[17] = 2µM, 24h preincubation with gametocytes, average of replicates
[18] = 2µM, 24h preincubation with gametocytes, replicate R1
[19] = 2µM, 24h preincubation with gametocytes, replicate R4
[20] = 2µM, 24h preincubation with gametocytes prior to induction of gametogenesis, average of replicates
[21] = 2µM, 24h preincubation with gametocytes prior to induction of gametogenesis, replicate R1
[22] = 2µM, 24h preincubation with gametocytes prior to induction of gametogenesis, replicate R3
[23] = 2µM, 24h preincubation with gametocytes prior to induction of gametogenesis, replicate R4

Structure (SMILES) | Tox50 (HepG2 cells) | Selectivity Ratio M [1] | IC50 [1] | HitlevelM ([1]; 2µM) | Selectivity ratio F [2] | IC50 [2] | HitlevelF ([2]; 2µM) | inhibition at 2 µM [1, 7] | inhibition at 2 µM [1, 8] | inhibition at 2 µM [1, 9] | inhibition at 2 µM [1, 10] | inhibition at 2 µM [1, 11] | IC50 ([1]; Plasmodium falciparum) | inhibition at 2 µM [2, 12] | inhibition at 2 µM [2, 13] | inhibition at 2 µM [2, 14] | inhibition at 2 µM [2, 15] | inhibition at 2 µM [2, 16] | IC50 ([2]; Plasmodium falciparum) | other results
CCCCOc1ccc(C(=O)C(CCC(CNC(C)(C)C)C(=O)c2ccc(OCCCC)cc2)CNC(C)(C)C)cc1.Cl (centres unmarked) [TCMDC-124120] | 3.4 µM | 2.27 | 1500 nM | 3 | 0.84 | 4060 nM | 2 | – | – | – | – | – | – | – | – | – | – | – | – | Average inhibition male (%) [1, 3]: 78.6%; % inhibition male (individual replicates) R1 [1, 4]: 81.6%; % inhibition male (individual replicates) R3 [1, 5]: 47.4%; % inhibition male (individual replicates) R4 [1, 6]: 92.9%; Average inhibition female (%) [2, 3]: 46.8%; % inhibition female (individual replicates) R1 [2, 4]: 36.1%; % inhibition female (individual replicates) R3 [2, 5]: 20.3%; % inhibition female (individual replicates) R4 [2, 6]: 72.1%
CCN1CCN(c2ccc(Nc3c4ccccc4nc4ccccc34)cc2)CC1 [TCMDC-124255] | 14.96 µM | 8.44 | 1770 nM | 4 | 2.14 | 6980 nM | 0 | – | – | – | – | – | – | – | – | – | – | – | – | Average inhibition male (%) [1, 3]: 77.2%; % inhibition male (individual replicates) R1 [1, 4]: 84.6%; % inhibition male (individual replicates) R3 [1, 5]: 78.3%; % inhibition male (individual replicates) R4 [1, 6]: 87.4%; Average inhibition female (%) [2, 3]: -4.4%; % inhibition female (individual replicates) R1 [2, 4]: -2.2%; % inhibition female (individual replicates) R3 [2, 5]: -22.1%; % inhibition female (individual replicates) R4 [2, 6]: 3.0%
O=C1Nc2ccccc2C1=NNC(=S)N1CCOCC1 [TCMDC-124263] | 46.3 µM | 49.26 | – | – | 25.94 | – | – | 98.7% | 98.4% | 100% | 99.2% | 96.9% | 940 nM | 55.9% | 38.4% | 72% | 48.4% | 64.6% | 1780 nM | –
Cl.Cl.c1ccc2c(NCCCCCCNc3c4ccccc4nc4ccccc34)c3ccccc3nc2c1 [TCMDC-124285] | 6.2 µM | 3.7 | 1680 nM | – | 1.95 | 3180 nM | – | – | – | – | – | – | – | – | – | – | – | – | – | Average inhibition male (%) [1, 17]: 93.2%; % inhibition male (individual replicates) R1 [1, 18]: 96.3%; % inhibition male (individual replicates) R4 [1, 19]: 88.4%; Average inhibition female (%) [2, 17]: 50.4%; % inhibition female (individual replicates) R1 [2, 18]: 48.2%; % inhibition female (individual replicates) R3 ([2]; 2µM, 24h preincubation with gametocytes, replicate R3): 44.8%; % inhibition female (individual replicates) R4 [2, 19]: 50.1%
Cl.c1ccc2c(NCCCCCCCCCNc3c4ccccc4nc4ccccc34)c3ccccc3nc2c1 [TCMDC-124286] | 6.29 µM | 3.22 | 1960 nM | – | 1.31 | 4810 nM | – | – | – | – | – | – | – | – | – | – | – | – | – | Average inhibition male (%) [1, 20]: 61.5%; % inhibition male (individual replicates) R1 [1, 21]: 79.2%; % inhibition male (individual replicates) R3 [1, 22]: 1.0%; % inhibition male (individual replicates) R4 [1, 23]: 84.9%; HitlevelM ([1]; 2µM, 24h preincubation): 3; Average inhibition female (%) [2, 20]: 43.1%; % inhibition female (individual replicates) R1 [2, 21]: 36.0%; % inhibition female (individual replicates) R3 [2, 22]: 18.9%; % inhibition female (individual replicates) R4 [2, 23]: 71.3%; HitlevelF ([2]; 2µM, 24h preincubation): 1
C=CCN(C(=O)c1ccc(Cl)c([N+](=O)[O-])c1)c1nc(-c2ccccc2)cs1 [TCMDC-124436] | 27.57 µM | 69.29 | – | – | 88.48 | – | – | 99.6% | 99.4% | 98.5% | 102% | 98.2% | 400 nM | 53% | 34.2% | 85.7% | 53.1% | 38.9% | 310 nM | –
Cc1cc(Nc2ccncc2)n2nc(C)c(-c3ccc(Cl)cc3)c2n1 [TCMDC-124478] | 65.53 µM | 68.63 | – | – | 6.55 | – | – | 95.5% | 96.8% | 90.6% | 96.8% | 98% | 950 nM | 2.4% | -1.3% | -8.5% | 24.2% | -4.9% | > 10000 nM | –
Cc1sc2ncnc(Sc3nnc(N)s3)c2c1C [TCMDC-124542] | 66.05 µM | 46.96 | – | 3 | 89.35 | – | 4 | – | – | – | – | – | 1410 nM | – | – | – | – | – | 740 nM | inhibition at 2 µM ([1]; Plasmodium falciparum, PfDGFA at 2µM, 24h preincubation with gametocytes, average of replicates, read-out: Average inhibition male (%)): 69.3%; inhibition at 2 µM ([1]; Plasmodium falciparum, PfDGFA at 2µM, 24h preincubation with gametocytes, replicate R1, read-out: % inhibition male (individual replicates) R1): 92.1%; inhibition at 2 µM ([1]; Plasmodium falciparum, PfDGFA at 2µM, 24h preincubation with gametocytes, replicate R2, read-out: % inhibition male (individual replicates) R2): 95.8%; inhibition at 2 µM ([1]; Plasmodium falciparum, PfDGFA at 2µM, 24h preincubation with gametocytes, replicate R3, read-out: % inhibition male (individual replicates) R3): 87%; inhibition at 2 µM ([1]; Plasmodium falciparum, PfDGFA at 2µM, 24h preincubation with gametocytes, replicate R4, read-out: % inhibition male (individual replicates) R4): 2.3%; inhibition at 2 µM ([2]; Plasmodium falciparum, PfDGFA at 2µM, 24h preincubation with gametocytes, average of replicates, read-out: Average inhibition female (%)): 86.8%; inhibition at 2 µM ([2]; Plasmodium falciparum, PfDGFA at 2µM, 24h preincubation with gametocytes, replicate R1, read-out: % inhibition female (individual replicates) R1): 95.8%; inhibition at 2 µM ([2]; Plasmodium falciparum, PfDGFA at 2µM, 24h preincubation with gametocytes, replicate R2, read-out: % inhibition female (individual replicates) R2): 96.9%; inhibition at 2 µM ([2]; Plasmodium falciparum, PfDGFA at 2µM, 24h preincubation with gametocytes, replicate R3, read-out: % inhibition female (individual replicates) R3): 102%; inhibition at 2 µM ([2]; Plasmodium falciparum, PfDGFA at 2µM, 24h preincubation with gametocytes, replicate R4, read-out: % inhibition female (individual replicates) R4): 52.6%
